The record followed here is patent US11452727B2, “Combination therapy for treating cancer” (Epizyme, Inc., priority 2017, dated 2022).

Holding throughout (experiment): In vitro combination study with tazemetostat, cell proliferation (Cell Titer Glo)
One test concerns A427. The following applies: A427; 7 days tazemetostat pre-treatment, 6 days co-treatment with second agent.
The subject of a further test is A549. The following applies: 7 days tazemetostat pre-treatment, 6 days co-treatment with second agent.
In another test the test system is NCI-H1573. The note with it: 7 days tazemetostat pre-treatment, 6 days co-treatment with second agent.
For the next test, the system named is NCI-H1703. The following applies: 7 days tazemetostat pre-treatment, 6 days co-treatment with second agent.
A further test relates to NCI-H1793. The note with it: 7 days tazemetostat pre-treatment, 6 days co-treatment with second agent.
For another test, the system named is NCI-H1993. The note with it: 7 days tazemetostat pre-treatment, 6 days co-treatment with second agent.
For another test, the system named is NCI-H2030. The note with it: 7 days tazemetostat pre-treatment, 6 days co-treatment with second agent.
In another test the test system is NCI-H2110. The note with it: 7 days tazemetostat pre-treatment, 6 days co-treatment with second agent.
A further test has as its system NCI-H2122. The note with it: 7 days tazemetostat pre-treatment, 6 days co-treatment with second agent.
The test system of the next test is NCI-H23. The following applies: 7 days tazemetostat pre-treatment, 6 days co-treatment with second agent.
Another test relates to NCI-H460. The following applies: 7 days tazemetostat pre-treatment, 6 days co-treatment with second agent.
For the next test, the system named is NCI-H522. The following applies: 7 days tazemetostat pre-treatment, 6 days co-treatment with second agent.
The test system of another test is NCI-H661. The following applies: 7 days tazemetostat pre-treatment, 6 days co-treatment with second agent.
For a further test, the system named is NCI-H838. The note with it: 7 days tazemetostat pre-treatment, 6 days co-treatment with second agent.
A further test relates to Calu-3. The following applies: 7 days tazemetostat pre-treatment, 6 days co-treatment with second agent.
The subject of another test is Calu-6. The note with it: 7 days tazemetostat pre-treatment, 6 days co-treatment with second agent.
The test system of the next test is HCC827. The note with it: 7 days tazemetostat pre-treatment, 6 days co-treatment with second agent.
Another test deals with NCI-H1299. The following applies: 7 days tazemetostat pre-treatment, 6 days co-treatment with second agent.

Method for A427: (§1) Initial proliferation studies were performed to determine the IC50 of tazemetostat in each cell line. For the screen, tazemetostat was used at concentrations bracketed around the IC50 value. If 50% inhibitory concentration was not reached then tazemetostat was tested starting at 10 μM.
(§2) In order to study the effect of dual combination of tazemetostat and a second agent on cell proliferation, cells in log-linear phase growth rate were pre-treated with various concentrations of tazemetostat or DMSO for 7 days in flasks, plated in 384-well plates in the absence of compounds and co-treated on day 8 with tazemetostat or DMSO and the second agent serially diluted for additional 6 days (as depicted in FIG. 1). On day 15, plates were developed for endpoint analysis using Cell Titer Glo to measure ATP content, which was used as an indicator of cell viability. DMSO concentration was kept constant throughout the assay at 0.15% v/v.
(§3) All cell lines were obtained from American Type Culture Collection (ATCC; Rockville, Md.). […] A427, Calu-3, Calu-6 cell lines were cultured in EMEM+10% Fetal bovine serum (FBS)+1% v/v Penicillin/Streptomycin (P/S).
Method for Calu-3: as §1, §2
(§4) NCI-H1573 was cultured in DMEM: F12 Medium containing the following components: 0.02 mg/ml insulin, 0.01 mg/ml transferrin, 25 nM sodium selenite, 50 nM Hydrocortisone, 1 ng/ml Epidermal Growth Factor, 0.01 mM ethanolamine, 0.01 mM phosphorylethanolamine, 100 pM triiodothyronine, 0.5% (w/v) bovine serum albumin, 0.5 mM sodium pyruvate, 4.5 mM L-glutamine and 1% v/v Pen/Strep.
Method for Calu-6: as §1, §2
Method for NCI-H1573: as §1, §2, §4
Method for NCI-H1703: as §1, §2
Method for NCI-H1993: as §1, §2
Method for NCI-H460: as §1, §2, §3
Method for NCI-H522: as §1, §2
Method for NCI-H661: as §1, §2, §3

Consider `C[C@]12C=CC(=O)C=C1CC[C@@H]1[C@@H]2[C@@H](O)C[C@@]2(C)[C@H]1CC[C@]2(O)C(=O)CO` [Prednisolone, prednisolone], for which the “combinatorial effect with tazemetostat (Loewe volume class)” value (shortened to “combinatorial effect with tazemetostat”) is “Add. (A value between −1 and 1 denoted “additivity”)” in the test on A427; “Add. (A value between −1 and 1 denoted “additivity”)” in the test with A549; “Syn. (Loewe volumes greater than 1 denoted “synergy”)” in the test with NCI-H1573; “No eff” in the test with NCI-H1703; “Syn. (Loewe volumes greater than 1 denoted “synergy”)” in the test with NCI-H1793; “No eff” with NCI-H1993. Besides, the “combinatorial effect with tazemetostat” value was “No eff” with NCI-H2030; “No eff” in the test with NCI-H2110; “Anta. (volumes <−1 denoted “antagonism”)” in the test on NCI-H2122; “No eff” in the test on NCI-H23; “Add. (A value between −1 and 1 denoted “additivity”)” in the test with NCI-H460; “No eff” in the test on NCI-H522. Moreover, the “combinatorial effect with tazemetostat” value in the test with NCI-H661 is recorded as “No eff”; in the test with NCI-H838, “No eff”; with Calu-3, “No eff”; with Calu-6, “Syn. (Loewe volumes greater than 1 denoted “synergy”)”; with HCC827, “Anta. (volumes <−1 denoted “antagonism”)”.

For `CNC(=O)Cn1cc(-c2ccc3c(c2)[C@H](F)C[C@]32NC(=O)N(CC(=O)N(Cc3ccc(F)cc3)[C@@H](C)C(F)(F)F)C2=O)cn1` [Cmpd H], the “combinatorial effect with tazemetostat” value with A427 is “Syn. (Loewe volumes greater than 1 denoted “synergy”)”; in the test with NCI-H1573, “Anta. (volumes <−1 denoted “antagonism”)”; with NCI-H1793, “Syn. (Loewe volumes greater than 1 denoted “synergy”)”; in the test with NCI-H1993, “Syn. (Loewe volumes greater than 1 denoted “synergy”)”; in the test on NCI-H2110 it was “Add. (A value between −1 and 1 denoted “additivity”)”; in the test with NCI-H2122, “Add. (A value between −1 and 1 denoted “additivity”)”. Also, the “combinatorial effect with tazemetostat” value was “Anta. (volumes <−1 denoted “antagonism”)” in the test on NCI-H23; “Syn. (Loewe volumes greater than 1 denoted “synergy”)” in the test with NCI-H460; “Anta. (volumes <−1 denoted “antagonism”)” in the test with NCI-H661; “Add. (A value between −1 and 1 denoted “additivity”)” in the test with NCI-H838; “Syn. (Loewe volumes greater than 1 denoted “synergy”)” in the test on Calu-3; “Add. (A value between −1 and 1 denoted “additivity”)” in the test on Calu-6. Besides, the “combinatorial effect with tazemetostat” value in the test on HCC827 was “Add. (A value between −1 and 1 denoted “additivity”)”.

`CCCS(=O)(=O)Nc1ccc(F)c(C(=O)c2c[nH]c3ncc(-c4ccc(Cl)cc4)cc23)c1F` [Vemurafenib, vemurafenib]: the “combinatorial effect with tazemetostat” value with HCC827 is “No eff”.

For the molecule `C#Cc1cccc(Nc2ncnc3cc(OCCOC)c(OCCOC)cc23)c1` [Erlotinib, erlotinib], in the test with HCC827, the “combinatorial effect with tazemetostat” value was “Syn. (Loewe volumes greater than 1 denoted “synergy”)”.

`C=CC(=O)Nc1cc(Nc2nccc(-c3cn(C)c4ccccc34)n2)c(OC)cc1N(C)CCN(C)C` [AZD9291]: the “combinatorial effect with tazemetostat” value in the test with A427 is “Anta. (volumes <−1 denoted “antagonism”)”; with A549, “Add. (A value between −1 and 1 denoted “additivity”)”; with NCI-H1299, “Add. (A value between −1 and 1 denoted “additivity”)”; in the test on NCI-H1573 it was “Add. (A value between −1 and 1 denoted “additivity”)”; in the test on NCI-H1703, “Add. (A value between −1 and 1 denoted “additivity”)”; in the test with NCI-H1793 it was “Syn. (Loewe volumes greater than 1 denoted “synergy”)”. Also, the “combinatorial effect with tazemetostat” value with NCI-H1993 is “Add. (A value between −1 and 1 denoted “additivity”)”; in the test with NCI-H2030 it was “Add. (A value between −1 and 1 denoted “additivity”)”; in the test on NCI-H2110, “Syn. (Loewe volumes greater than 1 denoted “synergy”)”; in the test on NCI-H2122, “Anta. (volumes <−1 denoted “antagonism”)”; in the test with NCI-H23 it was “Add. (A value between −1 and 1 denoted “additivity”)”; in the test with NCI-H460, “Add. (A value between −1 and 1 denoted “additivity”)”. For the same molecule, the “combinatorial effect with tazemetostat” value in the test on NCI-H522 was “Syn. (Loewe volumes greater than 1 denoted “synergy”)”; in the test with NCI-H661, “Anta. (volumes <−1 denoted “antagonism”)”; in the test with NCI-H838, “Syn. (Loewe volumes greater than 1 denoted “synergy”)”; in the test on Calu-3, “Syn. (Loewe volumes greater than 1 denoted “synergy”)”; in the test with HCC827, “Add. (A value between −1 and 1 denoted “additivity”)”.

As to `C[C@]1(c2nc3c(C(N)=O)cccc3[nH]2)CCCN1` [Veliparib, veliparib], the “combinatorial effect with tazemetostat” value was “Syn. (Loewe volumes greater than 1 denoted “synergy”)” with A427; “No eff” with A549; “Syn. (Loewe volumes greater than 1 denoted “synergy”)” in the test on NCI-H1573; “No eff” in the test with NCI-H1703; “No eff” in the test with NCI-H1793; “No eff” in the test with NCI-H1993. Also, the “combinatorial effect with tazemetostat” value is “No eff” with NCI-H2030; “No eff” with NCI-H2110; “Anta. (volumes <−1 denoted “antagonism”)” in the test on NCI-H2122; “No eff” with NCI-H23; “Add. (A value between −1 and 1 denoted “additivity”)” in the test with NCI-H460; “No eff” with NCI-H522. Also, the “combinatorial effect with tazemetostat” value with NCI-H661 is recorded as “No eff”; in the test on NCI-H838 it was “No eff”; in the test on Calu-3, “No eff”; with Calu-6 it was “No eff”; in the test on HCC827, “Syn. (Loewe volumes greater than 1 denoted “synergy”)”.
